Publication PMC11818871, “Identification of Fungal Metabolite Gliotoxin as a Potent Inhibitor Against Bacterial O-Acetylserine Sulfhydrylase CysK and CysM” (International Journal of Molecular Sciences, 2025)

Legend:
[1] = target: CysM (O-acetylserine sulfhydrylase) (Salmonella enterica, UniProt P29848); assay: recombinant enzyme, H2S consumption by HSip-1 fluorescence; confirmed by LC-MS/MS of cysteine production; assay type: biochemical
[2] = target: CysK (O-acetylserine sulfhydrylase) (Salmonella enterica, UniProt P0A1E3); assay: as above; assay type: biochemical
Sequence of CysK (O-acetylserine sulfhydrylase) (P0A1E3 2-323): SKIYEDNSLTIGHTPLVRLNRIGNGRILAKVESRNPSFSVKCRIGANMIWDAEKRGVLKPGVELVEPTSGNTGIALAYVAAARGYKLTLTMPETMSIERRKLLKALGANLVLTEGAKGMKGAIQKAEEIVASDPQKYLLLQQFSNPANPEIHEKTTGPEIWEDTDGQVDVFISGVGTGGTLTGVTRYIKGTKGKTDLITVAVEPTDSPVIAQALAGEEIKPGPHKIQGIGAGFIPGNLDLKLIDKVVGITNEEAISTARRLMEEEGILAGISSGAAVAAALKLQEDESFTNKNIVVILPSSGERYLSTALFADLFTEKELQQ

Sequence of CysM (O-acetylserine sulfhydrylase) (P29848 whole entry): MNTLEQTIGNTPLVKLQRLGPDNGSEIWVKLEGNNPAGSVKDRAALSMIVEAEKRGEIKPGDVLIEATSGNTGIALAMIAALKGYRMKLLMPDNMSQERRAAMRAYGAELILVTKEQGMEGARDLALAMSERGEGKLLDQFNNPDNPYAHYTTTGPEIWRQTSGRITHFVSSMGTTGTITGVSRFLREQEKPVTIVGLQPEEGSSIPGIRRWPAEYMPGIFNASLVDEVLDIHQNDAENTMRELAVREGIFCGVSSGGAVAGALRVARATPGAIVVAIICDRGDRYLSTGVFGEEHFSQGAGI

CN1C(=O)[C@]23CC4=CC=C[C@H](O)[C@H]4N2C(=O)[C@@]1(CO)SS3 [compound 1, gliotoxin]
IC50 [1]: ~3 µM | IC50 [2]: ~3 µM
